Source: patent US8691753B2 (priority 2009, dated 2014)
Like-named read-outs stand apart in the source and are kept apart here.

Key:
Format in all cases: biochemical
MMP-2h = MMP-2h (Homo sapiens (Human), UniProt P08253); experiment: Inhibition constant (Ki) on MMP-2h; conditions: human MMP-2
Source text: (§1) The inhibition constant Ki of these compounds has been determined according to the protocol described by Devel et al, 2006, J. Biol. Chem. (7).
(§2) In this table I and also in table II below, “h” corresponds to human. All of the compounds have therefore been evaluated on human MMPs.

MMP-3h = MMP-3h (Homo sapiens (Human), UniProt P08254); experiment: Inhibition constant (Ki) on MMP-3h; conditions: human MMP-3
Source text: as §1, §2

MMP-8h = MMP-8h (Homo sapiens (Human), UniProt P22894); experiment: Inhibition constant (Ki) on MMP-8h; conditions: human MMP-8
MMP-9h = MMP-9h (Homo sapiens (Human), UniProt P14780); experiment: Inhibition constant (Ki) on MMP-9h; conditions: human MMP-9
Source text: as §1, §2

MMP-10h = MMP-10h (Homo sapiens (Human), UniProt P09238); experiment: Inhibition constant (Ki) on MMP-10h; conditions: human MMP-10
MMP-12h = MMP-12h (Homo sapiens (Human), UniProt P39900); experiment: Inhibition constant (Ki) on MMP-12h; conditions: human MMP-12
MMP-13h = MMP-13h (Homo sapiens (Human), UniProt P45452); experiment: Inhibition constant (Ki) on MMP-13h; conditions: human MMP-13
Source text: as §1, §2

MMP-14h = MMP-14h (Homo sapiens (Human), UniProt P50281); experiment: Inhibition constant (Ki) on MMP-14h; conditions: human MMP-14
Source text: as §1, §2

MMP-3h, sequence (P08254 100-477): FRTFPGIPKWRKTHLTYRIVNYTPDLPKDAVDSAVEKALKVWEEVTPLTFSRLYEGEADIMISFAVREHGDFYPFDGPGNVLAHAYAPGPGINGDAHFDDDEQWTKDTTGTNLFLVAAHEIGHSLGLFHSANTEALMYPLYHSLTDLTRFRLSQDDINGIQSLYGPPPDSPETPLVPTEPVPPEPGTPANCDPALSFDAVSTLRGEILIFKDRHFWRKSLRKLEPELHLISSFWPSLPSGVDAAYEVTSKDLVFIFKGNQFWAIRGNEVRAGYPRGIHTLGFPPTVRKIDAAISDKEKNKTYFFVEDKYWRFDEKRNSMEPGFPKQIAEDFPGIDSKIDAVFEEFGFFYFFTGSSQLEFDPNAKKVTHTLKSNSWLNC
MMP-10h, sequence (P09238 99-476): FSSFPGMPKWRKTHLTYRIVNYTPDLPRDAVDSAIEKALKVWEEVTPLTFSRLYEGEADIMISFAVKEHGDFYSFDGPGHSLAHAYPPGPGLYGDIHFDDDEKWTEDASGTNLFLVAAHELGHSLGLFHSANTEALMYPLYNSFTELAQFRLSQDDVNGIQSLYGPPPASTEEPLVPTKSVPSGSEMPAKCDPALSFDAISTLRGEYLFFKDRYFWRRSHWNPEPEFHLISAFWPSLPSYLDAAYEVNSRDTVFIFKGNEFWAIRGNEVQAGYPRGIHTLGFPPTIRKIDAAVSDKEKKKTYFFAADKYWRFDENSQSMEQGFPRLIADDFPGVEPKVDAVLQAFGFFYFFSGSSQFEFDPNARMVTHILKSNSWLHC
MMP-8h, sequence (P22894 101-467): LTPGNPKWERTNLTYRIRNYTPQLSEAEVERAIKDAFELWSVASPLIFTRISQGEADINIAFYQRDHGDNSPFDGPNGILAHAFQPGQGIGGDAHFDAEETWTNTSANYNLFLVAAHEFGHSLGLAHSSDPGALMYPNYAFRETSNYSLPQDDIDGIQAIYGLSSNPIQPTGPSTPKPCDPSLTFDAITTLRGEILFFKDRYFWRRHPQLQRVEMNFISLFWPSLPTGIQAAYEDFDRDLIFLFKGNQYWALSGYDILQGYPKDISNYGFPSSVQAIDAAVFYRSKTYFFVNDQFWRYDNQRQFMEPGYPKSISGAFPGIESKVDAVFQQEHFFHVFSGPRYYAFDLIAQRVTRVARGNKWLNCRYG
MMP-12h, sequence (P39900 106-470): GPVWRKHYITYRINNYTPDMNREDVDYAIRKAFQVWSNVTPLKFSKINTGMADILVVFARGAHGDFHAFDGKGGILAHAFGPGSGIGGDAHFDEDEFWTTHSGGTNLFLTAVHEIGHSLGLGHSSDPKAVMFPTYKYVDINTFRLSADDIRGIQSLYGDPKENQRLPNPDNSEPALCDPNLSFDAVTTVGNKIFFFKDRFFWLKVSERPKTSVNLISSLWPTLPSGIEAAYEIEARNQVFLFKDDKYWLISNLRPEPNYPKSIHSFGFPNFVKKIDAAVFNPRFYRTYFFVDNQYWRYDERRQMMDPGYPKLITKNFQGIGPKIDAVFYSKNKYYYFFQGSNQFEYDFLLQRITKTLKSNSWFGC
MMP-9h, sequence (P14780 94-707): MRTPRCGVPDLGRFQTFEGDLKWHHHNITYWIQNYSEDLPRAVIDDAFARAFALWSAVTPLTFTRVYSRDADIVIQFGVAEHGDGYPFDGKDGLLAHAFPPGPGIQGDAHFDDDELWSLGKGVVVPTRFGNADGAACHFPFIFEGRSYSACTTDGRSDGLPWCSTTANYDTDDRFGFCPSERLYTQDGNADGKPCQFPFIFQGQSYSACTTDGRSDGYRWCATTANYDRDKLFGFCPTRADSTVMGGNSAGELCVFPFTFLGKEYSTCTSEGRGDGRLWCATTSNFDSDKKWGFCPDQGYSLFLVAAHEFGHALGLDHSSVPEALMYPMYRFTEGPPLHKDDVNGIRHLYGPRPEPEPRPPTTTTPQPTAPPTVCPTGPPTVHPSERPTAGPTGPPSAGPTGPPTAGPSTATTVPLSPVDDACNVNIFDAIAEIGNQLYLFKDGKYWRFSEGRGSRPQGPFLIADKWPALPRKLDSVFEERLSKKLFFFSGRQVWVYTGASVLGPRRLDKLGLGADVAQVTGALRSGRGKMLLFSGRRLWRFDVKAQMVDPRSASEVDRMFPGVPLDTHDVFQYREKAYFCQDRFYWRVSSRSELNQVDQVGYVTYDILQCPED
MMP-2h, sequence (P08253 110-660): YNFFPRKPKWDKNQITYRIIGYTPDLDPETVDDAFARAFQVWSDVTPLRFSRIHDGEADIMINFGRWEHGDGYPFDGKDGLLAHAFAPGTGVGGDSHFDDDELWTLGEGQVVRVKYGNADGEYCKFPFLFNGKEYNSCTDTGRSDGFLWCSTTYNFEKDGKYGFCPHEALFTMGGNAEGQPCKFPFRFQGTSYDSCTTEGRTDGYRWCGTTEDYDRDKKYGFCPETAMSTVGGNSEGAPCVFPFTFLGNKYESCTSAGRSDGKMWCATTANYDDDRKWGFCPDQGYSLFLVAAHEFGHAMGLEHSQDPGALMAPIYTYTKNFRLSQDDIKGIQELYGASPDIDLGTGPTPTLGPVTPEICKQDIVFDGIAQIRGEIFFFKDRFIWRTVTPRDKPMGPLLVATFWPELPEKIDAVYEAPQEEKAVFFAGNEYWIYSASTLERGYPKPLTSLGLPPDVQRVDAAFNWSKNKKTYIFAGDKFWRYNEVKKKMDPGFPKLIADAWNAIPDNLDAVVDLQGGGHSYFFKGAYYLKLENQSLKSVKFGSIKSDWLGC

Compound	Ki (MMP-2h; read-out: Ki MMP-2h)	Ki (MMP-3h; read-out: Ki MMP-3h)	Ki (MMP-8h; read-out: Ki MMP-8h)	Ki (MMP-9h; read-out: Ki MMP-9h)	Ki (MMP-10h; read-out: Ki MMP-10h)	Ki (MMP-12h; read-out: Ki MMP-12h)	Ki (MMP-13h; read-out: Ki MMP-13h)	Ki (MMP-14h; read-out: Ki MMP-14h)	Ki (MMP-2h)	Ki (MMP-3h)	Ki (MMP-8h)	Ki (MMP-9h)	Ki (MMP-10h)	Ki (MMP-12h)	Ki (MMP-13h)	Ki (MMP-14h)
NC(=O)[C@H](CCC(=O)O)NC(=O)[C@H](CCC(=O)O)NC(=O)CCc1ccc(-c2ncccn2)cc1 [Compound 32, (S)-5-amino-4-((S)-4-carboxy-2-(3-(4-(pyrimidin-2-yl)phenyl)propanamido)butanamido)-5-oxopentanoic acid]	> 5000 nM	> 1000 nM	> 1000 nM	> 1000 nM	> 5000 nM	969 nM	641 nM	> 1000 nM	–	–	–	–	–	–	–	–
NC(=O)[C@H](CC(=O)O)NC(=O)[C@H](CC(=O)O)NC(=O)CCc1cc(-c2ccc(-c3ccccc3)cc2)no1 [Compound 19, (S)-4-amino-3-((S)-2-(3-(3-(biphenyl-4-yl)isoxazol-5-yl)propanamido)-3-carboxypropanamido)-4-oxobutanoic acid]	52 nM	750 nM	> 1000 nM	> 1000 nM	527 nM	54 nM	24 nM	> 1000 nM	–	–	–	–	–	–	–	–
NC(=O)[C@H](CCC(=O)O)NC(=O)[C@H](CCC(=O)O)NC(=O)CCc1ccc(-c2ccc(-c3ccccc3)s2)cc1 [Compound 92, (S)-5-amino-4-((S)-4-carboxy-2-(3-(4-(5-phenylthiophen-2-yl)phenyl)propanamido)butanamido)-5-oxopentanoic acid]	279 nM	108 nM	381 nM	874 nM	156 nM	2.58 nM	200 nM	> 1000 nM	–	–	–	–	–	–	–	–
NC(=O)[C@H](CCC(=O)O)NC(=O)[C@H](CC(=O)O)NC(=O)CCc1ccc(-c2ccc(-c3ccccc3)cc2)cc1 [Compound 74, (S)-5-amino-4-((S)-3-carboxy-2-(3-(4′-phenylbiphenyl-4-yl)propanamido)propanamido)-5-oxopentanoic acid]	39 nM	16 nM	865 nM	> 1000 nM	430 nM	10.5 nM	13.5 nM	> 1000 nM	–	–	–	–	–	–	–	–
Cn1ccc(-c2ccc(CCC(=O)N[C@@H](CCC(=O)O)C(=O)N[C@@H](CCC(=O)O)C(N)=O)cc2)n1 [Compound 33, (S)-5-amino-4-((S)-4-carboxy-2-(3-(4-(1-methyl-1H-pyrazol-3-yl)phenyl)propanamido)butanamido)-5-oxopentanoic acid]	> 1000 nM	> 10000 nM	> 1000 nM	> 1000 nM	> 10000 nM	797 nM	518 nM	> 1000 nM	–	–	–	–	–	–	–	–
NC(=O)[C@H](CCC(=O)O)NC(=O)[C@H](CCCC(=O)O)NC(=O)CCc1cc(-c2ccc(-c3cccc(Cl)c3)cc2)no1 [Compound 11, (S)-6-((S)-1-amino-4-carboxy-1-oxobutan-2-ylamino)-5-(3-(3-(3′-chlorobiphenyl-4-yl)isoxazol-5-yl)propanamido)-6-oxohexanoic acid]	–	–	–	–	–	–	–	–	> 1000 nM	302 nM	> 1000 nM	> 10000 nM	556 nM	254 nM	191 nM	> 10000 nM
NC(=O)[C@H](Cc1c[nH]cn1)NC(=O)[C@H](CCC(=O)O)NC(=O)CCc1ccc(-c2ccccc2)cc1 [Compound 48, (S)-5-((S)-1-amino-3-(1H-imidazol-4-yl)-1-oxopropan-2-ylamino)-4-(3-(biphenyl-4-yl)propanamido)-5-oxopentanoic acid]	847 nM	> 10000 nM	339 nM	> 5000 nM	> 1000 nM	75 nM	> 1000 nM	> 10000 nM	–	–	–	–	–	–	–	–
NC(=O)[C@H](CCC(=O)O)NC(=O)[C@H](CC(=O)O)NC(=O)CCc1cc(-c2ccc(-c3cccc(Cl)c3)cc2)no1 [Compound 9, (S)-5-amino-4-((S)-3-carboxy-2-(3-(3-(3′-chlorobiphenyl-4-yl)isoxazol-5-yl)propanamido)propanamido)-5-oxopentanoic acid]	91 nM	381 nM	899 nM	> 1000 nM	520 nM	64 nM	35 nM	> 5000 nM	–	–	–	–	–	–	–	–
NC(=O)CC[C@H](NC(=O)[C@H](CCC(=O)O)NC(=O)CCc1ccc(-c2cccs2)cc1)C(N)=O [Compound 81, (S)-5-((S)-1,5-diamino-1,5-dioxopentan-2-ylamino)-5-oxo-4-(3-(4-(thiophen-2-yl)phenyl)propanamido)pentanoic acid]	204 nM	> 10000 nM	48 nM	> 1000 nM	651 nM	18.6 nM	801 nM	> 1000 nM	–	–	–	–	–	–	–	–
C[C@H](NC(=O)[C@H](CCC(=O)O)NC(=O)CCc1ccc(-c2ccccc2)cc1)C(N)=O [Compound 47, (S)-5-((S)-1-amino-1-oxopropan-2-ylamino)-4-(3-(biphenyl-4-yl)propanamido)-5-oxopentanoic acid]	> 1000 nM	> 10000 nM	311 nM	> 1000 nM	> 1000 nM	58 nM	> 1000 nM	> 5000 nM	–	–	–	–	–	–	–	–
CC(C)C[C@H](NC(=O)CCc1ccc(-c2ccc(-c3ccccc3)cc2)cc1)C(=O)N[C@@H](CCC(=O)O)C(N)=O [Compound 79, (S)-5-amino-4-((S)-4-methyl-2-(3-(4′-phenylbiphenyl-4-yl)propanamido)pentanamido)-5-oxopentanoic acid]	> 1000 nM	203 nM	> 1000 nM	> 100000 nM	> 1000 nM	> 1000 nM	443 nM	> 10000 nM	–	–	–	–	–	–	–	–
NC(=O)[C@H](CCC(=O)O)NC(=O)[C@H](CCC(=O)O)NC(=O)CCc1ccc(I)cc1 [Compound 31, (S)-5-amino-4-((S)-4-carboxy-2-(3-(4-iodophenyl)propanamido)butanamido)-5-oxopentanoic acid]	> 1000 nM	> 5000 nM	839 nM	> 1000 nM	> 1000 nM	155 nM	> 1000 nM	> 1000 nM	–	–	–	–	–	–	–	–
NC(=O)[C@H](CCC(=O)O)NC(=O)[C@H](CCC(=O)O)NC(=O)CCc1ccc(Oc2ccccc2)cc1 [Compound 28, (S)-5-amino-4-((S)-4-carboxy-2-(3-(4-phenoxyphenyl)propanamido)butanamido)-5-oxopentanoic acid]	> 1000 nM	> 5000 nM	> 1000 nM	> 10000 nM	> 1000 nM	856 nM	309 nM	> 1000 nM	–	–	–	–	–	–	–	–
NC(=O)[C@H](CCC(=O)O)NC(=O)[C@H](CO)NC(=O)CCc1ccc(-c2ccc(-c3ccccc3)cc2)cc1 [Compound 78, (S)-5-amino-4-((S)-3-hydroxy-2-(3-(4′-phenylbiphenyl-4-yl)propanamido)propanamido)-5-oxopentanoic acid]	729 nM	116 nM	> 1000 nM	> 5000 nM	> 5000 nM	206 nM	367 nM	> 1000 nM	–	–	–	–	–	–	–	–
O=C(O)CC[C@H](NC(=O)CCc1ccc(-c2cccs2)cc1)C(=O)N1CCC[C@@H](CC(=O)O)C1 [Compound 89, (S)-5-((S)-3-(carboxymethyl)piperidin-1-yl)-5-oxo-4-(3-(4-(thiophen-2-yl)phenyl)propanamido)pentanoic acid]	484 nM	> 100000 nM	94 nM	> 1000 nM	> 5000 nM	124 nM	> 1000 nM	> 1000 nM	–	–	–	–	–	–	–	–
